Source: PMC5976936 (2018)

Legend:
[1] = test system: G4_1-4 (DNA, G4) CCGGGGCGGGCCGGGGGCGGGGTC; assay: ECD thermal melting; settings: KCl concentration not stated for this experiment; 50 mM Tris-HCl pH 7.4; 10 µM TMPyP4, 5 µM DNA
[2] = test system: G4mod1 (DNA, G4, 5-hydroxymethylcytosine at 7) CCGGGGCGGGCCGGGGGCGGGGTC; assay: ECD thermal melting; settings: KCl concentration not stated for this experiment; 50 mM Tris-HCl pH 7.4; 10 µM TMPyP4, 5 µM DNA

C[n+]1ccc(-c2c3nc(c(-c4cc[n+](C)cc4)c4ccc([nH]4)c(-c4cc[n+](C)cc4)c4nc(c(-c5cc[n+](C)cc5)c5ccc2[nH]5)C=C4)C=C3)cc1
ΔTM [1]: 12 °C
ΔTM [2]: 12 °C
